Values after ≈ are worked out from the molar mass of the structure shown.
Legend:
Aedes aegypti [1] = assay: Larvicidal activity against Aedes aegypti Paea assessed as mortality at 7 ug/ml after 24 hrs relative to control; assay type: functional
Aedes aegypti [2] = assay: Larvicidal activity against Aedes aegypti Paea assessed as mortality at 14 ug/ml after 24 hrs relative to control; assay type: functional
Aedes aegypti [3] = assay: Larvicidal activity against Aedes aegypti Paea assessed as mortality at 21 ug/ml after 24 hrs relative to control; assay type: functional
Aedes aegypti [4] = assay: Larvicidal activity against Aedes aegypti Paea assessed as mortality at 28 ug/ml after 24 hrs relative to control; assay type: functional
Aedes aegypti [5] = assay: Larvicidal activity against Aedes aegypti Paea assessed as mortality at 35 ug/ml after 24 hrs relative to control; assay type: functional
Aedes aegypti [6] = assay: Larvicidal activity against Aedes aegypti Paea assessed as mortality after 24 hrs; assay type: functional, organism-based
Aedes aegypti [7] = assay: Induction of oviposition deterrent activity in Aedes aegypti assessed as effective repellency at 30 ug/ml after 24 hrs by stereomicroscopic analysis relative to control; assay type: functional
Aedes aegypti [8] = assay: Induction of oviposition deterrent activity in Aedes aegypti assessed as effective repellency at 15 ug/ml after 24 hrs by stereomicroscopic analysis relative to control; assay type: functional
Aedes aegypti [9] = assay: Induction of oviposition deterrent activity in Aedes aegypti assessed as effective repellency at 45 ug/ml after 24 hrs by stereomicroscopic analysis relative to control; assay type: functional
Aedes aegypti [10] = assay: Induction of oviposition deterrent activity in Aedes aegypti assessed as effective repellency at 60 ug/ml after 24 hrs by stereomicroscopic analysis relative to control; assay type: functional
Aedes aegypti [11] = assay: Induction of oviposition deterrent activity in Aedes aegypti assessed as effective repellency at 75 ug/ml after 24 hrs by stereomicroscopic analysis relative to control; assay type: functional
Chikungunya virus [12] = assay: Antiviral activity against Chikungunya virus infected in HEK293T cells assessed as reduction in infectious virus particle production by luciferase reporter gene assay; assay type: functional, organism-based; details: HEK-293T
Aedes aegypti [13] = assay: Larvicidal activity against Aedes aegypti Paea assessed as mortality at 5 ug/ml after 24 hrs relative to control; assay type: functional
Aedes aegypti [14] = assay: Larvicidal activity against Aedes aegypti Paea assessed as mortality at 10 ug/ml after 24 hrs relative to control; assay type: functional
Aedes aegypti [15] = assay: Larvicidal activity against Aedes aegypti Paea assessed as mortality at 15 ug/ml after 24 hrs relative to control; assay type: functional
Aedes aegypti [16] = assay: Larvicidal activity against Aedes aegypti Paea assessed as mortality at 20 ug/ml after 24 hrs relative to control; assay type: functional
Aedes aegypti [17] = assay: Larvicidal activity against Aedes aegypti Paea assessed as mortality at 25 ug/ml after 24 hrs relative to control; assay type: functional
Aedes aegypti [18] = assay: Induction of oviposition deterrent activity in Aedes aegypti assessed as effective repellency at 10 ug/ml after 24 hrs by stereomicroscopic analysis relative to control; assay type: functional
Aedes aegypti [19] = assay: Induction of oviposition deterrent activity in Aedes aegypti assessed as effective repellency at 20 ug/ml after 24 hrs by stereomicroscopic analysis relative to control; assay type: functional
Aedes aegypti [20] = assay: Induction of oviposition deterrent activity in Aedes aegypti assessed as effective repellency at 40 ug/ml after 24 hrs by stereomicroscopic analysis relative to control; assay type: functional
Aedes aegypti [21] = assay: Induction of oviposition deterrent activity in Aedes aegypti assessed as effective repellency at 50 ug/ml after 24 hrs by stereomicroscopic analysis relative to control; assay type: functional
Chikungunya virus [22] = assay: Antiviral activity against Chikungunya virus S-27 assessed as viral titer interferon loading; assay type: functional
Chikungunya virus [23] = assay: Antiviral activity against Chikungunya virus 899 assessed as inhibition of virus-induced cytopathogenic effect measured on day 5 post infection by MTS/PMS based microscopic analysis; assay type: functional, organism-based; details: Chikungunya virus, 899, 120 h
Chikungunya virus [24] = assay: Antiviral activity against Chikungunya virus 899 by qRT-PCR analysis; assay type: functional, organism-based
Chikungunya virus [25] = assay: Antiviral activity against Chikungunya virus 899 infected in African green monkey BGM cells assessed as reduction in viral infectious progeny after 48 hrs by titration assay; assay type: functional, organism-based; details: Chikungunya virus, 899, BGM
Chikungunya virus [26] = assay: Antiviral activity against Chikungunya virus SGP011 by qRT-PCR analysis; assay type: functional, organism-based
Chikungunya virus [27] = assay: Antiviral activity against Chikungunya virus SGP011 infected in African green monkey BGM cells assessed as reduction in viral infectious progeny after 48 hrs by titration assay; assay type: functional, organism-based
Chikungunya virus [28] = assay: Antiviral activity against Chikungunya virus SGP011 infected in African green monkey BGM cells after 24 hrs by luciferase reporter gene assay; assay type: functional, organism-based
Chikungunya virus [29] = assay: Antiviral activity against Chikungunya virus LR2006 OPY1 infected in African green monkey BGM cells after 24 hrs by luciferase reporter gene assay; assay type: functional, organism-based
Chikungunya virus [30] = assay: Antiviral activity against Chikungunya virus CNR20235 infected in buffalo green monkey BGM cells after 24 hrs by luciferase reporter gene assay; assay type: functional, organism-based
[31] = Cytotoxicity against African green monkey Vero cells assessed as reduction in cell viability after 18 hrs by neutral red staining-based microscopic analysis; details: chlorocebus sabaeus
[32] = Cytotoxicity against human MRC5 cells assessed as reduction in cell viability after 48 hrs by neutral red staining-based microscopic analysis
Chikungunya virus [33] = assay: Antiviral activity against Chikungunya virus LR2006 OPY1 infected in human MRC5 cells after 48 hrs by indirect immunofluorescence analysis; assay type: functional, organism-based; details: LR2006 OPY1, MRC5, 48 h
Chikungunya virus [34] = assay: Antiviral activity against Chikungunya virus LR2006 OPY1 infected in human MRC5 cells after 30 mins by indirect immunofluorescence analysis; assay type: functional, organism-based; details: LR2006 OPY1, MRC5, 0.5 h
Chikungunya virus [35] = assay: Antiviral activity against Chikungunya virus LR2006 OPY1 infected in human MRC5 cells after 60 mins by indirect immunofluorescence analysis; assay type: functional, organism-based; details: LR2006 OPY1, MRC5, 1 h
[36] = Selectivity index, ratio of CC50 for African green monkey Vero cells to IC50 for Chikungunya virus LR2006 OPY1; assay type: toxicity; details: read-out: Ratio CC50/IC50
[37] = Selectivity index, ratio of CC50 for human MRC5 cells to IC50 for Chikungunya virus LR2006 OPY1; assay type: toxicity; details: read-out: Ratio CC50/IC50
[38] = Cytotoxicity against African green monkey Vero cells assessed as reduction in cell viability; assay type: cell-based; details: chlorocebus sabaeus
Chikungunya virus [39] = assay: Antiviral activity against Chikungunya virus infected in African green monkey Vero cells; assay type: functional, organism-based

In the case of CC(C)=CCCC(C)[C@@]1(O)CC=C(C)CC1 (stereo partly drawn), the Activity (Aedes aegypti [1]) is reported as 24.8%, the Activity (Aedes aegypti [2]) is reported as 42.6% and the Activity (Aedes aegypti [3]) is reported as 63.2%. It also gave an Activity (Aedes aegypti [4]) of 84.7%, an Activity (Aedes aegypti [5]) of 98.1% and an IC50 (Aedes aegypti [6]) of 15.8 µg/mL (≈ 71.2 µM). The IC90 (Aedes aegypti [6]) was 30.3 µg/mL (≈ 136 µM), the Activity (Aedes aegypti [7]) was 77.03% and the Activity (Aedes aegypti [8]) was 72.3%. The Activity (Aedes aegypti [9]) was 81.13%, the Activity (Aedes aegypti [10]) was 85.45% and the Activity (Aedes aegypti [11]) was 88.99%.
Compound O=C(O[C@@H]1Cc2c(O)cc(O)cc2O[C@@H]1c1cc(O)c(O)c(O)c1)c1cc(O)c(O)c(O)c1 [EPIGALOCATECHIN GALLATE] has an EC50 (Chikungunya virus [12]) of 6.54 µg/mL (≈ 14.3 µM).
CC(C)=CCCC(C)c1ccc(C)cc1 (stereo not drawn) gave an Activity (Aedes aegypti [13]) of 24.5%, an Activity (Aedes aegypti [14]) of 45.3% and an Activity (Aedes aegypti [15]) of 62.7%. The Activity (Aedes aegypti [16]) was 84.2%, the Activity (Aedes aegypti [17]) was 97.1% and the IC50 (Aedes aegypti [6]) was 11.2 µg/mL (≈ 55.5 µM). For the same compound, the IC90 (Aedes aegypti [6]) was 22 µg/mL (≈ 109 µM), the Activity (Aedes aegypti [18]) was 70.28% and the Activity (Aedes aegypti [19]) was 75.62%. For the same compound, the Activity (Aedes aegypti [7]) was 80.87%, the Activity (Aedes aegypti [20]) was 86% and the Activity (Aedes aegypti [21]) was 89.99%.
With Sc1ncnc2nc[nH]c12 [MERCAPTOPURINE ANHYDROUS] the Activity (Chikungunya virus [22]) was 47 - 67 U/ml.
Compound CC(=O)O[C@@]12C[C@@H](C)[C@@]3(O)[C@@H](C=C(CO)C[C@]4(O)C(=O)C(C)=C[C@@H]34)[C@@H]1C2(C)C [PROSTRATIN] has an EC50 (Chikungunya virus [23]) of 8 µM, an EC50 (Chikungunya virus [24]) of 7.6 µM and an EC50 (Chikungunya virus [25]) of 7.1 µM. It also gave an EC50 (Chikungunya virus [26]) of 0.3 µM, an EC50 (Chikungunya virus [27]) of 0.4 µM and an EC50 (Chikungunya virus [28]) of 0.2 µM. It also gave an EC50 (Chikungunya virus [29]) of 0.2 µM and an EC50 (Chikungunya virus [30]) of 0.5 µM.
With CCOC(=O)c1c(CSc2ccccc2)n(C)c2cc(Br)c(O)c(CN(C)C)c12 [UMIFENOVIR] the CC50 at 18 h [31] was 680 µM, the CC50 at 48 h [32] was 376 µM and the IC50 (Chikungunya virus [33]) was 12.2 µM. The IC50 (Chikungunya virus [34]) was 23.1 µM, the IC50 (Chikungunya virus [35]) was 31.7 µM and the selectivity ratio [36] was 28. It also gave a selectivity ratio [37] of 36.
Work on CC/C(C)=C/C(=O)O[C@@H]1[C@H](C)C[C@H]2O[C@]1(O)[C@@H](O)[C@H]1CC[C@H](O1)C(C)(C)/C=C/[C@H](C)C2=O yielded a CC50 [38] of 60.9 µg/mL (≈ 135 µM) and an EC50 (Chikungunya virus [39]) of less than 0.8 µg/mL.

— ChEMBL document CHEMBL4177563, “The medicinal chemistry of Chikungunya virus” (Bioorg Med Chem, 2017)
